Laboratory results reported in ChEMBL document CHEMBL4052794, “Design, synthesis, docking and biological evaluation of 4-phenyl-thiazole derivatives as autotaxin (ATX) inhibitors” (Bioorg Med Chem Lett, 2017).

Experiments:
Autotaxin [1] = target: T1, Autotaxin (Homo sapiens, UniProt Q13822); test: Inhibition of human ATX using FS-3 as substrate measured every 5 mins for 30 mins by fluorescence assay
Autotaxin [2] = target: T1, Autotaxin; test: Inhibition of ATX in human plasma using LPC as substrate pretreated for 15 mins followed by substrate addition measured after 3 hrs by LC-MS/MS analysis

Structure (SMILES)	IC50 (Autotaxin [1]) [nM]	IC50 (Autotaxin [2]) [nM]
CN(c1ccc(S(N)(=O)=O)cc1)c1nc(-c2ccc(O)c(CO)c2)cs1	5820	
CN(c1ccc2c(c1)CS(=O)(=O)N2)c1nc(-c2ccc(O)c(C(=O)O)c2)cs1	> 10000	
CS(=O)(=O)Nc1ccc(-c2csc(N(Cc3ccccn3)c3ccc4nn[nH]c4c3)n2)cc1	2570	
O=C(OCc1ccccc1)N1CCC(Nc2nc(-c3ccc(CP(=O)(O)O)cc3)cs2)CC1	75.9	
NS(=O)(=O)c1cc(-c2csc(NC3CCN(C(=O)OCc4ccccc4)C3)n2)ccc1Cl (configuration not stated)	1340	
O=C(OCc1ccccc1)N1CCC(Nc2nc(-c3ccc(O)c(O)c3)cs2)C1 (configuration not stated)	1230	
COc1ccc(-c2csc(C(=O)NC3CCN(C(=O)OCc4cc(Cl)cc(Cl)c4)CC3)n2)cc1	30.3	
O=C(NC1CCN(C(=O)OCc2cc(Cl)cc(Cl)c2)CC1)c1nc(-c2ccc(Cl)cc2)cs1	63.3	
CS(=O)(=O)Nc1ccc(-c2csc(C(=O)NC3CCN(C(=O)OCc4cc(Cl)cc(Cl)c4)CC3)n2)cc1	2.99	735
NS(=O)(=O)c1cc(-c2csc(C(=O)NCc3ccc(Cl)cc3)n2)ccc1Cl	2110	
CN(c1ccc(S(N)(=O)=O)cc1)c1nc(-c2ccc(O)c(C(N)=O)c2)cs1	6570	

Second part, the molecule after the results:

IC50 (Autotaxin [1]) [nM]	IC50 (Autotaxin [2]) [nM]	Structure (SMILES)
4470		NC(=O)c1cc(-c2csc(NC3CCN(C(=O)OCc4ccccc4)C3)n2)ccc1O (configuration not stated)
2.19	15	O=C(NC1CCN(C(=O)OCc2cc(Cl)cc(Cl)c2)CC1)c1nc(-c2ccc(CP(=O)(O)O)cc2)cs1
505		NS(=O)(=O)c1cc(-c2csc(C(=O)NC3CCN(C(=O)OCc4ccccc4)CC3)n2)ccc1Cl
10500		NS(=O)(=O)c1cc(-c2csc(C(=O)Nc3cccc(C(=O)O)c3)n2)ccc1Cl
10600		CN(c1ccc(S(N)(=O)=O)cc1)c1nc(-c2ccc(O)c(C(=O)O)c2)cs1
4.47		NS(=O)(=O)c1cc(-c2csc(C(=O)NC3CCN(C(=O)OCc4cc(Cl)cc(Cl)c4)CC3)n2)ccc1Cl
8060		O=C(Cc1cccc(Nc2nc(-c3ccc(O)c(O)c3)cs2)c1)NCc1ccccc1
13.7		O=C(NC1CCN(C(=O)OCc2ccccc2)CC1)c1nc(-c2ccc(CP(=O)(O)O)cc2)cs1
11600		O=S(=O)(Cc1cccc(Nc2nc(-c3ccc(O)c(O)c3)cs2)c1)NCc1ccccc1
10.3		O=C(OCc1ccccc1)N1CCC(Nc2nc(-c3ccc(CP(=O)(O)O)cc3)cs2)C1 (configuration not stated)
1300		NS(=O)(=O)c1cc(-c2csc(NC3CCN(C(=O)OCc4ccccc4)CC3)n2)ccc1Cl
10900		O=C(O)c1cc(-c2csc(NC3CCN(C(=O)OCc4ccccc4)C3)n2)ccc1O (configuration not stated)
9430		O=C(Nc1cccc(Nc2nc(-c3ccc(O)c(O)c3)cs2)c1)OCc1ccccc1
> 100		CS(=O)(=O)Nc1cccc(-c2csc(NC3CCN(C(=O)OCc4cc(Cl)cc(Cl)c4)CC3)n2)c1
